Measurements as given in patent US8338401B2, “Coumarin-amide derivatives and its preparation, said drug composition and its use” (Institute of Materia Medica Chinese Academy of Medical …, priority 2002, dated 2012).
“Also recorded” adds a separate entry of the source. Where two headings read alike, the source gives them in different places.

Experiments:
[1] = test system: chronic renal failure induced by 5/6 nephrectomy in rats; format: in vivo, Male Wistar rats
Protocol: The model on chronic renal failure induced by partial renal ablation in rats was set up according to the Guidelines of Pre-clinic Research for New Drugs. Male Wistar rats with initial body weights of 200 g, anesthetized with 35 mg/kg of pentobarbital i.p., the right kidney was removed, and the upper and lower pole […] of the left kidney were resected, stop bleeding, closed the abdominal and sutured. Four weeks following surgery, the BUN, creatinine and urinary protein in rats were determined. […] Rats were randomly divided into seven groups, 30/group, with sham, model, Benazepril (4 mg/kg/day) and Losartan (10 mg/kg/day) as positive control, and compound 149 groups (7.5 mg/kg/day, 15 mg/kg/day and 30 mg/kg/day, respectively). All the groups were administered intragastrically, once per day and 6 (six) times per week, till 16 weeks post surgery. Body weights were weighed to observe the growth of the rats. The above indexes were determined every 4 weeks up to the 16th week following the initiation of drug administration, and at each time, a number of animals were sacrificed and the kidneys were harvested for pathological analysis. Pathological lesions in chronic renal failure models are mainly glomerulosclerosis and interstitial fibrosis. According to the damage extents, glomerulosclerosis is divided into five grades (0 IV). 0 grade means no glomerulus pathological changes at all, and IV grade means ultimately glomerular sclerosis and glassy pathological changes.

[2] = test system: kidney tubulointerstitial fibrosis caused by unilateral ureteral obstruction (UUO) in rats; test: Inhibition of kidney tubulointerstitial fibrosis caused by unilateral ureteral obstruction (UUO) in rats; format: in vivo, Male Wistar rats; settings: for BUN / Scr. (serum creatinine): oral for 16 days
Protocol: Male Wistar rats with initial body weights of 180˜230 g were used. Unilateral ureteral obstruction was performed under pentobarbital anesthesia (35 mg/kg) and sterile conditions. Via a midline incision, the left ureteral was ligated. Sham surgery was performed by making a midline incision but leaving ureteral intact. Following surgery, rats were randomly divided into sham, model, Benazepril (4 mg/kg/day) and Losartan (10 mg/kg/day) as positive control, and compound 149 (5 mg/kg/day, 10 mg/kg/day and 20 mg/kg/day). Starting 2 day before surgery, Benazepril, Losartan and compound 149 were administered for 16 days orally. BUN and creatinine in serum were determined in the 11th and 16th day (Table 6) following initiation of Benazepril, Losartan and compound 149 treatment, at which time animals were killed and the kidneys were harvested. Tissues were dissected, weighed, fixed in 10% formaldehyde and embedded in paraffin wax for pathological analysis.

[3] = Primary acute toxicity test; format: in vivo; settings: mice
Protocol: 5 g/kg and 10 g/kg of compound 149 were administered orally to mice once and observed for 14 days. Body weights of 48 hours after administration in mice were no different. At 14th day after administration, the mouse average body weights in 5 g/kg and 10 g/kg groups increased 7 g and 5 g respectively. There was no any other different for every animal and no death were observed.

[4] = test system: Salmonella typhimurium TA97, TA98, TA100 and TA102; test: Ames test; format: cell-based; settings: 0.5-5000.0 μg/plate, presence or absence of S9
Protocol: His^− type Salmonella typhimurium TA97, TA98, TA100 and TA102 were employed. Concentration of the test compound was 0.5, 5.0, 50.0, 500.0, 5000.0 μg/plate. S9 was the microsome component of liver homogenate of a rat weighted 200 g. The test compound 149 was tested in the presence or absence of S9.
According to the Salmonella typhimurium/mammalian microsome enzyme mutagenic test method revised by Ames (1983), metabolism activated or non-metabolism activated plate incorporation assay was conducted on compound 149, and the strain which passed the assay was seeded to the culture medium and incubated at 37° C. under shaking for 15 hours. 100 μl compound solutions with various concentrations were added to 0.1 ml of the culture liquid, and then S9 mixture or phosphate buffer was added, and the mixtures were incubated in a 37° C. water bath for 20 minutes. After that, 2 ml of upper layer agar was added, mixed well and poured into a plate with lower layer agar and incubated at 37° C. for 48 hours. The number of the colonies in each plate was counted.

[5] = 8th week after administration (12 weeks after nephrectomy), 7.5 mg/kg
[6] = 8th week after administration (12 weeks after nephrectomy), 15 mg/kg
[7] = 8th week after administration (12 weeks after nephrectomy), 30 mg/kg
[8] = 8th week after administration (12 wk after nephrectomy), 7.5 mg/kg
[9] = 8th week after administration (12 wk after nephrectomy), 15 mg/kg
[10] = 8th week after administration (12 wk after nephrectomy), 30 mg/kg
[11] = 12th week after administration (16 weeks after nephrectomy), 7.5 mg/kg
[12] = 12th week after administration (16 weeks after nephrectomy), 15 mg/kg
[13] = 12th week after administration (16 weeks after nephrectomy), 30 mg/kg
[14] = 12th week after administration (16 wk after nephrectomy), 7.5 mg/kg
[15] = 12th week after administration (16 wk after nephrectomy), 15 mg/kg
[16] = 12th week after administration (16 wk after nephrectomy), 30 mg/kg

Cc1c(O)c([N+](=O)[O-])cc2cc(C(=O)Nc3ccc(O)c(C(=O)O)c3)c(=O)oc12 [Compound 149, 3-(3′-carboxy-4′-hydroxy-phenylamidocarbonyl)-6-nitro-7-hydroxy-8-methyl-coumarin]
various parameters (BUN, Cre, TGF-β1, Ang II) compared with the positive controls Benazepril and Losartan ([1]; 5/6 nephrectomy rats): all better than those of the Benazepril group and are equivalent to those of the Losartan group | BUN [1, 5]: 22.35 ± 3.120 mg/dL | serum creatinine (Scr.) [1, 5]: 2.14 ± 0.500 mg/dL | BUN [1, 6]: 26.04 ± 4.234 mg/dL | serum creatinine (Scr.) [1, 6]: 1.80 ± 0.550 mg/dL | BUN [1, 7]: 30.54 ± 11.697 mg/dL | serum creatinine (Scr.) [1, 7]: 1.89 ± 0.184 mg/dL | AII (Angiotensin II) [1, 8]: 63.9 ± 13.2 pg/mL | UP (urinary protein) [1, 8]: 30.1 ± 16.6 mg/day | serum TGF-β1 [1, 8]: 20.0 ± 6.7 ng/mL | AII (Angiotensin II) [1, 9]: 49.9 ± 21.3 pg/mL | UP (urinary protein) [1, 9]: 30.4 ± 16.2 mg/day | serum TGF-β1 [1, 9]: 18.6 ± 12.2 ng/mL | AII (Angiotensin II) [1, 10]: 41.0 ± 12.5 pg/mL | UP (urinary protein) [1, 10]: 34.3 ± 12.1 mg/day | serum TGF-β1 [1, 10]: 18.9 ± 10.1 ng/mL | Glomerulosclerosis Grade (%): 0 ([1]; 8 wk after ad., 7.5 mg/kg): 15.7 ± 19.0% | Glomerulosclerosis Grade (%): I ([1]; 8 wk after ad., 7.5 mg/kg): 24.0 ± 21.1% | Glomerulosclerosis Grade (%): II ([1]; 8 wk after ad., 7.5 mg/kg): 30.0 ± 20.8% | Glomerulosclerosis Grade (%): III ([1]; 8 wk after ad., 7.5 mg/kg): 23.2 ± 28.5% | Glomerulosclerosis Grade (%): IV ([1]; 8 wk after ad., 7.5 mg/kg): 8.0 ± 13.0% | Glomerulosclerosis Total Grade ([1]; 8 wk after ad., 7.5 mg/kg): 5.7 ± 2.9 | Glomerulosclerosis Grade (%): 0 ([1]; 8 wk after ad., 15 mg/kg): 37.5 ± 29.3 % | Glomerulosclerosis Grade (%): I ([1]; 8 wk after ad., 15 mg/kg): 27.5 ± 16.3% | Glomerulosclerosis Grade (%): II ([1]; 8 wk after ad., 15 mg/kg): 18.8 ± 9.9% | Glomerulosclerosis Grade (%): III ([1]; 8 wk after ad., 15 mg/kg): 13.3 ± 20.7% | Glomerulosclerosis Grade (%): IV ([1]; 8 wk after ad., 15 mg/kg): 2.9 ± 8.2% | Glomerulosclerosis Total Grade ([1]; 8 wk after ad., 15 mg/kg): 3.9 ± 1.7 | Glomerulosclerosis Grade (%): 0 ([1]; 8 wk after ad., 30 mg/kg): 28.3 ± 20.8% | Glomerulosclerosis Grade (%): I ([1]; 8 wk after ad., 30 mg/kg): 34.2 ± 23.0% | Glomerulosclerosis Grade (%): II ([1]; 8 wk after ad., 30 mg/kg): 7.5 ± 8.8 % | Glomerulosclerosis Grade (%): III ([1]; 8 wk after ad., 30 mg/kg): 17.5 ± 30.7% | Glomerulosclerosis Grade (%): IV ([1]; 8 wk after ad., 30 mg/kg): 6.7 ± 13.4% | Glomerulosclerosis Total Grade ([1]; 8 wk after ad., 30 mg/kg): 4.9 ± 3.5 | BUN [1, 11]: 39.42 ± 4.686 mg/dL | serum creatinine (Scr.) [1, 11]: 2.73 ± 0.78 mg/dL | BUN [1, 12]: 37.32 ± 5.467 mg/dL | serum creatinine (Scr.) [1, 12]: 2.63 ± 0.38 mg/dL | BUN [1, 13]: 36.60 ± 5.422 mg/dL | serum creatinine (Scr.) [1, 13]: 2.10 ± 0.71 mg/dL | AII (Angiotensin II) [1, 14]: 48.3 ± 48.5 pg/mL | UP (urinary protein) [1, 14]: 66.7 ± 38.8 mg/day | serum TGF-β1 [1, 14]: 13.6 ± 7.1 ng/mL | AII (Angiotensin II) [1, 15]: 41.3 ± 28.4 pg/mL | UP (urinary protein) [1, 15]: 52.3 ± 34.4 mg/day | serum TGF-β1 [1, 15]: 12.3 ± 7.7 ng/mL | AII (Angiotensin II) [1, 16]: 19.2 ± 9.19 pg/mL | UP (urinary protein) [1, 16]: 48.2 ± 31.6 mg/day | serum TGF-β1 [1, 16]: 11.6 ± 6.7 ng/mL | Glomerulus pathological scores, compared with the model group ([1]; 12 weeks after nephrectomy (8 weeks since administration), compound 149 30 mg/kg, Losartan 10 mg/kg/day): less than that of the model group significantly | rates of 0 grade glomerylus in residual kidney, compared with the model group ([1]; 12 weeks after nephrectomy (8 weeks since administration), compound 149 30 mg/kg, Losartan 10 mg/kg/day, P<0.05): higher than that of the model group with significant difference | Glomerulosclerosis Grade (%): 0 ([1]; 12 wk after ad., 7.5 mg/kg): 0% | Glomerulosclerosis Grade (%): I ([1]; 12 wk after ad., 7.5 mg/kg): 2.3 ± 6.3% | Glomerulosclerosis Grade (%): II ([1]; 12 wk after ad., 7.5 mg/kg): 37.1 ± 16.0% | Glomerulosclerosis Grade (%): III ([1]; 12 wk after ad., 7.5 mg/kg): 51.4 ± 8.6% | Glomerulosclerosis Grade (%): IV ([1]; 12 wk after ad., 7.5 mg/kg): 13.8 ± 20.6% | Glomerulosclerosis Total Grade ([1]; 12 wk after ad., 7.5 mg/kg): 8.6 ± 1.9 | Glomerulosclerosis Grade (%): 0 ([1]; 12 wk after ad., 15 mg/kg): 0% | Glomerulosclerosis Grade (%): I ([1]; 12 wk after ad., 15 mg/kg): 8.1 ± 14.1% | Glomerulosclerosis Grade (%): II ([1]; 12 wk after ad., 15 mg/kg): 38.1 ± 27.4% | Glomerulosclerosis Grade (%): III ([1]; 12 wk after ad., 15 mg/kg): 46.2 ± 26.1% | Glomerulosclerosis Grade (%): IV ([1]; 12 wk after ad., 15 mg/kg): 9.1 ± 12.6% | Glomerulosclerosis Total Grade ([1]; 12 wk after ad., 15 mg/kg): 7.7 ± 1.7 | Glomerulosclerosis Grade (%): 0 ([1]; 12 wk after ad., 30 mg/kg): 0% | Glomerulosclerosis Grade (%): I ([1]; 12 wk after ad., 30 mg/kg): 2.0 ± 4.5% | Glomerulosclerosis Grade (%): II ([1]; 12 wk after ad., 30 mg/kg): 71.3 ± 11.5 % | Glomerulosclerosis Grade (%): III ([1]; 12 wk after ad., 30 mg/kg): 26.7 ± 7.8 % | Glomerulosclerosis Grade (%): IV ([1]; 12 wk after ad., 30 mg/kg): 0% | Glomerulosclerosis Total Grade ([1]; 12 wk after ad., 30 mg/kg): 6.7 ± 0.2 | number of grade III glomerulus, compared with the model group ([1]; 16 weeks after nephrectomy (12 weeks since administration), compound 149 30 mg/kg (P<0.01), Losartan 10 mg/kg/day (P<0.05)): less than that of the model group significantly | affection with the major organs such as heart, liver, spleen, and lungs (pathological results) ([1]; rat, in vivo): no significant affection | improvement of each biochemical index compared with the positive controls ([2]; UUO rats): more significant than those of the Losartan group, and equivalent to those of the Benazepril group | inflammatory cell infiltration and tubulointerstitial fibrosis (pathological changes) ([2]; UUO rats): significantly attenuated | pathological results compared with the positive controls ([2]; UUO rats): better than Benazepril and equivalent with Losartan | BUN ([2]; UUO rats, 5.0 mg/kg): 23.71 ± 4.17 mg/dL | Scr. (serum creatinine) ([2]; UUO rats, 5.0 mg/kg): 1.58 ± 0.49 mg/kg | BUN ([2]; UUO rats, 10.0 mg/kg): 20.76 ± 1.56 mg/dL | Scr. (serum creatinine) ([2]; UUO rats, 10.0 mg/kg): 1.61 ± 0.36 mg/kg | BUN ([2]; UUO rats, 20.0 mg/kg): 20.77 ± 2.04 mg/dL | Scr. (serum creatinine) ([2]; UUO rats, 20.0 mg/kg): 1.60 ± 0.14 mg/kg | overall result in the renal interstitial fibrosis model compared with the positive controls ([2]; unilateral ureteral ligation in rats): better than Benazepril and corresponds to (slightly better than) Losartan | death ([3]; 5 g/kg and 10 g/kg, observed for 14 days): no death | increase of average body weights at 14th day after administration ([3]; oral once, 5 g/kg): 7 g | Body weights of 48 hours after administration ([3]; oral once, 5 g/kg and 10 g/kg): no different | increase of average body weights at 14th day after administration ([3]; oral once, 10 g/kg): 5 g | mutagenesis (Ames test result) [4]: no mutagenesis; also recorded: negative | number of colony formation of Salmonella Typhimurium TA97, TA98, TA100 and TA102 [4]: did not increase
